# Source: BindingDB's records for doi:10.1111/cbdd.12356 (Peking University, 2014)
# Molecular target: T1, Polyunsaturated fatty acid 5-lipoxygenase (Homo sapiens, UniProt P09917)
# T1 sequence (P09917 whole entry): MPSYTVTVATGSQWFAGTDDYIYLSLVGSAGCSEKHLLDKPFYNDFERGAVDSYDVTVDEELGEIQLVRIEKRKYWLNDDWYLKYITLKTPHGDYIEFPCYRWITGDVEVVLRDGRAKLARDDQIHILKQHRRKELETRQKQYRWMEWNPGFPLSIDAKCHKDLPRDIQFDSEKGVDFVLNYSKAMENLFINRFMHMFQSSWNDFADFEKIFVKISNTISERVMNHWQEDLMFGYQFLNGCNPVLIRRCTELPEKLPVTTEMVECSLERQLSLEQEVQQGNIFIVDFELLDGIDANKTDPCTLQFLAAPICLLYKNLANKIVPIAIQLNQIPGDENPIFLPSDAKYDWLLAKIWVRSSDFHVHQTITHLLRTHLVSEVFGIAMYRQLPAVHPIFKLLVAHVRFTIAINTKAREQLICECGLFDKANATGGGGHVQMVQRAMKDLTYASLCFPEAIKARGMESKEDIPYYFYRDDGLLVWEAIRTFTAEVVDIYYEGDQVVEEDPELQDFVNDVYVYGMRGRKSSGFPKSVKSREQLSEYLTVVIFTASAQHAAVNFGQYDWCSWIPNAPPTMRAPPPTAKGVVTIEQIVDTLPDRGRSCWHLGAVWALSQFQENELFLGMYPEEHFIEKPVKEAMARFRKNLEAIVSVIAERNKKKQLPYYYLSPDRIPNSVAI
# Assay: Cell-Free Assay
# Procedure: The enzyme activity of 5-LOX was determined fluorescence spectrophotometrically by oxidation of the substrate H2DCFDA to the highly fluorescent 2',7'-dichlorofluorescein product during 5-LOX s catalytic reaction . The reactions were initiated by the addition of AA as substrate and then monitored by excitation at 500 nm and emission at 520 nm utilizing a multiwall fluorometer. Fluorescence signals were recorded for 5 min with a kinetics mode program. Inhibition activities were measured as described previously.
row,IC50,Compound
1,21 µM,"O=C(c1[nH]nc2c1CSc1sc(Br)cc1-2)N1CCN(Cc2ccccc2)CC1 [5-(4-benzylpiperazine-1-carbonyl)-11-bromo-8,10-dithia-3,4-diazatricyclo[7.3.0.0 ,⁶]dodeca-1(9),2,5,11-tetraene (7i)]"
2,5.7 µM,"O=C(c1[nH]nc2c1CSc1sc(Br)cc1-2)N1CCN(c2ccccc2F)CC1 [11-bromo-5-[4-(2-fluorophenyl)piperazine-1-carbonyl]-8,10-dithia-3,4-diazatricyclo[7.3.0.0,6]dodeca-1(9),2,5,11-tetraene (7c)]"
3,86 µM,"O=C(c1[nH]nc2c1CSc1sc(Br)cc1-2)N1CCN(c2ccc(OC(F)(F)F)cc2)CC1 [11-bromo-5-{4-[4-(trifluoromethoxy)phenyl]piperazine-1-carbonyl}-8,10-dithia-3,4-diazatricyclo[7.3.0.0 ,⁶]dodeca-1(9),2,5,11-tetraene (7e)]"
